These results are taken from article doi:10.1101/2025.08.13.670122v1 (bioRxiv, 2025).

Data set [1] concerns Sprague-Dawley rats. As to the kind of experiment: Simultaneous in vivo echocardiography and blood pressure measurements. Set-up: species or system rat. The conditions noted are these: intrajugular perfusion 0.96 nmol kg−1 min−1, n = 4; for Change in left ventricular ejection fraction (ΔEF) / cardiac contractility: isoflurane-anesthetized Sprague-Dawley rats; for Change in mean arterial blood pressure (ΔMABP): isoflurane-anesthetized normotensive Sprague-Dawley rats. Here is the method:
All ligands were administered intravenously at the same dose (0.96 nmol kg^−1 min^−1), by instrumentalizing adult Sprague-Dawley rats for simultaneous recordings of arterial blood pressure and cardiac function (Figure 5A).
Figure 5. Simultaneous in vivo cardiac ultrasound imaging and blood pressure monitoring of adult Sprague-Dawley rats following constant administration of AT1R ligands. (A) The acquisition setup for each isoflurane-anesthetized rat includes a catheter in the right femoral artery connected to a TDX300 Micro-med transducer and BPA-100c blood pressure (BP) analyzer for continuous BP measurement, while drug administration is performed via a catheter inserted in the left jugular vein and linked to an automatic syringe pump set at a flow rate of 30 µl*min^−1. […] The syringe pump is initiated at 0 s, and the catheter’s saline dead volume is flushed in approximately 180 s.
Figure 6. […] Changes in mean arterial blood pressure (ΔMABP; A), ejection fraction (ΔEF; B), left ventricular end-systolic (ΔLVES; C) and end-diastolic (ΔLVEDV; D) volumes, and stroke volume (ΔSV; E) were measured from simultaneous in vivo cardiac blood pressure monitoring and ultrasound imaging. […] The syringe pump is initiated at 0 s, and the catheter’s saline dead volume is flushed in approximately 180 s. […] Statistical analyses were performed with an unpaired standard t-test. * p < 0.05, ** p < 0.01 and ***p<0.005.
Male Sprague-Dawley rats (230–350 g, 7–9 weeks of age) were initially anesthetized with 5% isoflurane (mixed with 100% oxygen at a flow rate of 2.5 L/min). The animal was placed in a supine position on a thermostatic pad set at 37°C, and anesthesia was maintained with 2% isoflurane, confirmed by the absence of reflexes to toe pinch. The right femoral artery was cannulated with a PE 50 catheter filled with heparinized saline (10 units/mL) and connected to a Micro-Med transducer (TDX-300) and a Micro-Med blood pressure analyzer (BPA-100c). The left jugular vein was also cannulated with a PE 50 catheter filled with heparinized saline (10 units/mL) and connected to a syringe operated by an automatic pump with a flow rate of 30 µL min-1. […] Blood pressure parameters were continuously obtained throughout the experiment, and heart function parameters were simultaneously captured at various time points using a Vevo3100 echocardiography system equipped with an MX250 ultrasound probe (FUJIFILM VisualSonics). The ejection fraction was determined from a parasternal long-axis view of the left ventricle in B-mode imaging and analyzed using Vevo LAB 5.7.1 (FUJIFILM VisualSonics). Data were presented as the mean ± SEM of four different rats per group. Statistical analyses were conducted with standard analysis of variance (ANOVA) followed by Tukey’s multiple comparisons test. […]

The target in data set [2] is T1, endogenous AT1R (Rattus norvegicus, UniProt P25095).
T1 construct: expressing low levels of endogenous AT1R; endogenous in cells; host or cells: rat primary VSMC, passages 13-15
T1 sequence (P25095 1-359): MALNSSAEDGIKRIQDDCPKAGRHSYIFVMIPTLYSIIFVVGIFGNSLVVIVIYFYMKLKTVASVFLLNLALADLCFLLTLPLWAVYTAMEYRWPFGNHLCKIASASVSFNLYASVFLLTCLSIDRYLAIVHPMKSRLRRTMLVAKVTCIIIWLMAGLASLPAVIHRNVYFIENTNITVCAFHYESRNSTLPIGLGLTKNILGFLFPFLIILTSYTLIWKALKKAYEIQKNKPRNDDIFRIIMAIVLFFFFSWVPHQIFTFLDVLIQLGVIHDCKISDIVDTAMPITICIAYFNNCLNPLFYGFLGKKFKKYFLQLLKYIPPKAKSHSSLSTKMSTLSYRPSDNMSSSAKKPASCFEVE
The data set can be described thus: PKC BRET sensor in rat primary VSMC with endogenous AT1R. The format is cell-based. Conditions: adenoviral PKC BRET sensor, 1 min stimulation, mean ± SEM of at least three to five independent experiments, read-out: EC50 PKC in VSMCs. The text has this: (§1) We next assessed the analogs’ ability to engage Gαq by assessing either the PKC or Rho responses in rat primary vascular smooth muscle cell (VSMC) culture, expressing low levels of endogenous AT1R (between 25–50 fmol/mg) (Figure 4, Table 6).
(§2) The coding regions of the PKC-c1b sensor, PKN-RBD-RlucII, and rGFPcaax were PCR-amplified and subcloned into the KpnI/XhoI sites of the pENTR3C vector (Invitrogen), respectively. These were then transferred into the adenoviral expression vector pAd/CMV/V5-DEST (Invitrogen), via gateway cloning (pAD-CMV-PKC-c1b, pAD-CMV-PKN-RBD-RLucII, and pAD-CMV-rGFPcaax). Viruses containing the sensor codes were generated following a previously outlined process.[49] […] The following day, cells were transfected with 4 µg of PacI-digested pAd5-CMVsensors using Lipofectamine 2000 (Invitrogen). After 7–10 days post-transfection, mature virus particles were gleaned via the collection of cells and media, which then underwent multiple cycles of freezing and thawing, followed by centrifugation. The harvested virus was amplified by re-infection on 100-mm dishes of confluent HEK293A cells, and harvested 48-72 h later. Viral titers were determined by serial dilution of adenovirus stock and subsequent infection of HEK293A cells in 96-well plates. 36 h after infection, cells were stained using an anti-hexon antibody (ab8249; Abcam), and hexon-expressing cells were tallied via fluorescence microscopy. The virus was then stored at −80°C. After this, rat VSMCs (between the 13th to 15th passages) were seeded at a density of 20,000 cells in each well of white 96-well plates 24 h before transduction with the viral vector. The cells were then transduced with the PKC sensor-adenovirus (3 μL per well) or Rho sensor (1 μL each per well of PKN-RBD-RLucII-adnovirus and rGFP-caax adenovirus). After 24 h, the medium was replaced. 48 h post-viral transduction, the cells were thoroughly washed with Tyrode’s buffer. Finally, BRET assays were carried out as detailed below.
(§3) On the day of the experiment, each well was washed with 80 µL of Tyrode’s buffer (140 mM NaCl, 2.7 mM KCl, 1 mM CaCl2, 12 mM NaHCO3, 5.6 mM D-glucose, 0.5 mM MgCl2, 0.37 mM NaH2PO4, 25 mM Hepes (pH 7.4)). This was followed by incubation for 1 h in Tyrode’s buffer at room temperature. For the Gαq, β-arrestin-2, and PKC biosensors used in HEK293 cells, coelenterazine 400A (at a final concentration of 5 μM) was added 10 min before stimulation. Cells were then stimulated with increasing doses of the indicated ligand, and BRET signals were measured using a Tristar2 (Berthold) microplate reader 10 min later. For the PKC and Rho biosensors in VSMCs, and the Rho biosensor in ΔG12/13 cells, cells were similarly stimulated with ligands for 1 min, 1 min 30 s, and 3 min, respectively, before BRET measurement. […] BRET signals were then measured using a Synergy2 (BioTek) microplate reader. The applied filter set was 410/80 nm and 515/30 nm, designed to detect the light emissions of RlucII (Renilla luciferase) (donor) and rGFP (acceptor), respectively.
On the technique in general: Bioluminescence resonance energy transfer reports proximity on the nanometre scale.

In data set [3] the target is T1, endogenous AT1R. The data set can be described thus: Rho BRET sensor in rat primary VSMC with endogenous AT1R. The format is cell-based. The conditions noted are these: adenoviral Rho BRET sensor, 1 min 30 s stimulation, mean ± SEM of at least three to five independent experiments, read-out: EC50 Rho in VSMCs.
From the text: as §1, §2, §3

A short description of data set [4]: Plasma stability. Type of data set: in vitro ADME. The conditions noted are these: male Sprague-Dawley rat plasma, 6 μL of 1 mM compound (10% DMSO) in 27 μL plasma, 37°C, 0-24 h, UPLC-MS, one-phase decay, mean ± SEM of at least three experiments, read-out: Plasmatic half-life t1/2 (±SEM). The protocol: The degradation was quenched by adding 140 μL of 1% formic acid in an acetonitrile-ethanol (1:1) solution containing 0.25 mM of N,N-dimethylbenzamide (used as an internal standard). This mixture was initially transferred to an Impact Protein Precipitation filter plate (Phenomenex, California), the filtrates from which were subsequently collected in a second 96-well UPLC plate. Both plates were centrifuged at 500 g for 10 min while maintaining a temperature of 4°C. The filtrates were then diluted with 30 μL of distilled water and processed for analysis using an Acquity UPLC-MS system class H (using an Acquity UPLC protein BEH C18 column that measured 2.1 mm × 50 mm and had 1.7 μm particles with pores 130 Å in width). The peptide half-life, derived from the degradation curve, was calculated using the exponential one-phase decay function in GraphPad Prism 9. Degradation was estimated by comparing the mass spectrum at each point with those at the zero-minute mark. The data were presented as a mean ± SEM of at least three unique experiments, each performed in singlicate.

Where only a bound is given, the exact number is not on record here.

On to `CCCc1nc(C(C)(C)O)c(C(=O)O)n1Cc1ccc(-c2ccccc2-c2nnn[nH]2)cc1` [Olmesartan], for which, in data set [1], the “Change in left ventricular ejection fraction (ΔEF) / cardiac contractility” value was “did not alter the cardiovascular parameters measured” and the “Change in mean arterial blood pressure (ΔMABP)” value is “did not alter the cardiovascular parameters measured”.
As a reminder, the EC50 is the concentration needed to bring the measured effect to its halfway point. For `CC[C@H](C)[C@H](NC(=O)[C@H](Cc1ccc(O)cc1)NC(=O)[C@@H](NC(=O)[C@H](CCCNC(=N)N)NC(=O)CNC)C(C)C)C(=O)N[C@@H](Cc1cnc[nH]1)C(=O)N1CCC[C@H]1C(=O)N[C@H](C)C(=O)O` [TRV027, reference compound], the EC50 in data set [2] and in data set [3] was > 10 µM throughout. The half-life at 182 µM in data set [4] was 16.1 ± 1.2 h.
Consider `CC[C@H](C)[C@H](NC(=O)[C@H](Cc1ccc(O)cc1)NC(=O)[C@@H](NC(=O)[C@H](CCCNC(=N)N)NC(=O)[C@@H](N)CC(=O)O)C(C)C)C(=O)N[C@@H](Cc1c[nH]cn1)C(=O)N1CCC[C@H]1C(=O)N[C@@H](Cc1ccccc1)C(=O)O` [AngII, Angiotensin II], for which, in data set [1], the “Change in left ventricular ejection fraction (ΔEF) / cardiac contractility” value is “significant decrease in cardiac ejection fraction of the left ventricle”; the “Change in mean arterial blood pressure (ΔMABP)” value is “rapid and sustained increase in arterial blood pressure”.
